From US20240299373A1, “IMPROVED USE OF TRADIPITANT IN MOTION SICKNESS” (Vanda Pharmaceuticals Inc., priority 2023, published 2024)
Values joined by “and” are separate entries in the source; they are usually repeats but may differ in a detail not shown here. Equal entries are not always repeated. Marks after values point to notes of the source that are not given here.

Columns and labels:
[1] = system: small bowel transit and gastric emptying; assay: Clinical study of gastrointestinal motility (gamma scintigraphy); assay type: in vivo, human; conditions: healthy subjects, 20 mg or 200 mg single oral dose; study underpowered for this parameter
Procedure: A single-center, randomized, double-blind, placebo-controlled study is conducted to investigate the effect of tradipitant on small bowel transit time. A total of 15 healthy subjects, including 12 men and 3 women between the ages of 19 and 63 years, are enrolled in the study and receive at least 1 dose of study medication. A total of 13 subjects complete the study. Subjects are randomized to receive 20 mg of tradipitant, 200 mg of tradipitant, or placebo as a single oral dose within each of 3 periods, co-administered with a capsule radiolabeled with a maximum of 1MBq ^111In. Four hours post-dose, all subjects also receive a second capsule radiolabeled with a maximum of 4MBq ^99mTc. Each subject receives all 3 doses during the study. For all dosing regimens, in vivo gamma scintigraphic studies are performed at predetermined intervals, and the following scintigraphic parameters are analyzed: onset and completion of gastric emptying, onset and completion of colon arrival, initiation and completion of small bowel transit, and initial and complete disintegration of the capsule (anatomical location and time).

[2] = Plasma concentration 2 hours post-dose in beagle dogs; assay type: in vivo; conditions: Dog 1-5
Procedure: All animals are dosed over a period of five (5) weeks, with each dog receiving one of five different treatments on each day of dosing. […] In cases where apomorphine is administered alone, without prior treatment with tradipitant or aprepitant, apomorphine is given at approximately the same time as when given in combination with tradipitant or aprepitant.

[3] = system: apomorphine-induced emesis; assay: Emetic challenge study (apomorphine-induced emesis) in beagle dogs; assay type: in vivo, beagle dog; conditions: for Total No. Emetic Episodes: apomorphine 0.1 mg/kg iv 2 hours later, five dogs, APO control 28
Procedure: Over the five (5) weeks of the study, each animal receives each of the treatments, but only one per week. The purpose of this study is to determine if tradipitant suppresses apomorphine-induced emesis.
The mid dose of tradipitant is the approximate half-log interval between the low and high doses.
All animals are dosed over a period of five (5) weeks, with each dog receiving one of five different treatments on each day of dosing.
All dogs are fasted overnight prior to each treatment day and then fed approximately one (1) hour after oral dosing (approximately one (1) hour prior to administration of apomorphine). Individual doses are adjusted weekly for changes in body weight.
The dose regimen consists of a 5×5 Latin square design, in which each subject receives 1 dose or dose combination per week (6 day washout) as shown in Table 3 below.

brain NK-1 receptors = assay: Occupancy of brain NK-1 receptors with tracer GR205171; assay type: in vivo; conditions: p.o., tracer GR205171 iv
Procedure: A tracer NK-1 antagonist compound (GR205171) is used to evaluate the ability of other NK-1 antagonists to occupy the brain NK-1 receptors. In these studies, the test compounds are administered orally and the tracer compound is administered intravenously afterward. The occupancy of the NK-1 receptors is evaluated by quantitating the amount of the tracer compound bound to the brain NK-1 receptors after increasing doses of the test compounds.

NK-1 receptor = target: T1, NK-1 receptor (Cavia porcellus, UniProt P30547); assay: GR73632-induced vocalization in guinea pigs; assay type: in vivo; conditions: guinea pig
T1 construct: potency and CNS penetration of NK-1 antagonists in the guinea pig; from tissue; host or cells: brain of living Dunkin/Hartley guinea pigs
Procedure: When introduced into the brain, the NK-1 receptor agonist substance P (SP) elicits distress vocalizations in the guinea pig that can be inhibited by NK-1 antagonists.
Male Dunkin/Hartley guinea pigs (200 to 250 grams) are orally administered either vehicle or an NK-1 antagonist. Approximately 45 minutes later (for dose response studies), the animals are anesthetized and 0.1 nmol of GR73632 (SP analog) in a vehicle volume of 5 μl is injected into the cerebral ventricle at the intersection of bregma and the midline of the skull. Animals are placed in a dark testing chamber located inside of a sound attenuation cubicle and vocalizations are recorded for 30 minutes following recovery from anesthesia. The time spent vocalizing is quantified for each animal. In the duration of action study, 0.1 mg/kg of tradipitant or vehicle solution is administered orally and then 2, 4, or 7 hours later, 0.1 nmol of GR73632 is administered into the cerebral ventricle as described above. Vocalizations are recorded and quantified as indicated above. Vehicle solutions are either CMC (FIG. 4 data) or an ethanol/emulphor solution (FIGS. 5 and 6). Data is analyzed using one-tailed t-tests.

T1 sequence (P30547 whole entry): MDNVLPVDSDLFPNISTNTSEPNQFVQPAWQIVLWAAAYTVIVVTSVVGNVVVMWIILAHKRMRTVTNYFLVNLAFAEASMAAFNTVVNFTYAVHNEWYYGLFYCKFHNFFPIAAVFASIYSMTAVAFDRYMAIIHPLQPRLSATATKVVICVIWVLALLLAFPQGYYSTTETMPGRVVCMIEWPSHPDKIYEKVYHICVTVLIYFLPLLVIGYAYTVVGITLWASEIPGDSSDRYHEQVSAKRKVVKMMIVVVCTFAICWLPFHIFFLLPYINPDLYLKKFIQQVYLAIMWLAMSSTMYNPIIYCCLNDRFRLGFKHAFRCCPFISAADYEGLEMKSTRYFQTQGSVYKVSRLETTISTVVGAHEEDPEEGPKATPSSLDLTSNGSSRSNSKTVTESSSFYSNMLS

suppression of agonist-induced vocalization (NK-1 receptor; 0.1 mg/kg oral, 7 hours after administration): significantly active | duration of activity (NK-1 receptor; administered orally): exceeds 7 hours | inhibitory activity on vocalization (NK-1 receptor; at and below 0.1 mg/kg oral): retains significant inhibitory activity | inhibition of agonist-induced vocalization (NK-1 receptor; oral, 10, 1.0, 0.1 and 0.05 mg/kg (each p<0.001)): significant inhibition | minimum effective dose (MED), inhibition of vocalization (NK-1 receptor; oral, p<0.001 compared to controls): 0.025 mg/kg
Compound: O=C(c1ccccc1Cl)c1cccnc1-c1nnn(Cc2cc(C(F)(F)F)cc(C(F)(F)F)c2)c1-c1ccncc1 [Tradipitant, {2-[1-(3,5-bistrifluoromethylbenzyl)-5-pyridin-4-yl-1H-[1,2,3]triazol-4-yl]-pyridin-3-yl}-(2-chlorophenyl)-methanone]
effect on gastric emptying [1]: No effect | Concentration of tradipitant in plasma, individual dogs ([2]; 0.3 mg/kg oral): 0.09093 µg/mL and 0.08338 µg/mL and 0.02259 µg/mL and 0.0512 µg/mL and 0.04133 µg/mL | Concentration of tradipitant in plasma, individual dogs ([2]; 1.0 mg/kg oral): 0.24084 µg/mL and 0.10097 µg/mL and 0.06156 µg/mL and 0.17558 µg/mL and 0.08649 µg/mL | Concentration of tradipitant in plasma, individual dogs ([2]; 3.0 mg/kg oral): 0.3162 µg/mL and 0.68291 µg/mL and 0.11979 µg/mL and 0.12273 µg/mL and 0.25658 µg/mL | Total No. Emetic Episodes ([3]; 0.3 mg/kg oral): 1** | Total No. Emetic Episodes ([3]; 1.0 mg/kg oral): 1** | Total No. Emetic Episodes ([3]; 3.0 mg/kg oral): 1** | effect against apomorphine-induced emesis ([3]; each dose tested (0.3, 1.0, and 3.0 mg/kg)): effective | ED50, occupancy of brain NK-1 receptors (brain NK-1 receptors): 0.04 mg/kg
